Measurements reported in patent US4277479A, “Tetrazolylalkoxycarbostyril derivatives and pharmaceutical compositions containing them” (Otsuka Pharmaceutical Co., Ltd., priority 1978, dated 1981).

Experiments:
[1] = tested on: rabbit platelet (collagen-induced aggregation); test: Platelet aggregation inhibitory effect, collagen-induced aggregation in rabbit platelet; type: cell-based; conditions: Oryctolagus cuniculus, read-out: Inhibition effect on collagen-induced aggregation in rabbit platelet; for inhibition at 100 µM: concentration of the test compound solution 10^-4 mole; for inhibition at 10 µM: concentration of the test compound solution 10^-5 mole; for inhibition at 1 µM: concentration of the test compound solution 10^-6 mole
Source text: The blood sample used for the test is a 1/9 (by volume) mixture of sodium citrate and whole blood collected from rabbit. Said sample is subjected to 10-minute centrifugal separation at 1,000 r.p.m. to obtain a platelet rich plasma (PRP). The thus obtained PRP is separated, and the remaining blood sample is further subjected to 15-minute centrifugal separation at 3,000 r.p.m. to obtain a platelet poor plasma (PPP).
The number of platelets in the PRP is counted by the Brecher-Clonkite Method, and the PRP is diluted with the PPP to prepare a PRP sample with platelet concentration of 300,000/mm^3 for the adenosine diphosphate (ADP)-induced aggregation test. There is also prepared a PRP sample with platelet concentration of 450,000/mm^3 for the collagen-induced aggregation test.
0.6 Ml of said PRP sample is added into 0.01 ml of a solution of a test compound of a predetermined concentration and the mixture is placed in a 37° C. thermostat for one minute. Then 0.07 ml of an ADP or collagen solution is added to the mixture. Transmittance of this mixture is determined and the change of transmittance is recorded by using the aggregometer at stirrer speed of 1,100 r.p.m. […] ADP is adjusted to a concentration of 7.5×10^-5 M, and the collagen solution is prepared by triturating 100 mg of collagen with 5 ml of said buffer and the supernatant is used as collagen inducer. Adenosine and acetylsalicylic acid are used as controls for the ADP-induced aggregation test and the collagen-induced aggregation test, respectively. The platelet aggregation inhibitory effect is measured in terms of percent inhibition with respect to the aggregation rate of the controls. The aggregation rate is calculated from the following formula: [formula] wherein a: transmittance of PRP
b: transmittance of PRP containing a test compound and an aggregation inducer
The compounds tested are as follows.

[2] = tested on: cerebral blood flow, bastard dog; test: Increasing effect of cerebral blood flow in anesthetized dog; type: in vivo; conditions: Canis lupus familiaris, iv, through profunda femoris vein, dog; for change in vivo at 0.3 mg/kg: dosage 300 μg/kg
Description: (Test of increasing effect of cerebral blood flow)
Thus, a bastard dog (male, 12-20 kg of body weight) was fixed in a prone (position) and was anesthetized with […] of pentobarbital sodium and forced to breathe at a frequency of respiration of 20 times/minute. Then, the skull was bared and the surface bone was removed to expose the venous sinus by using a grinder and the venous blood was taken out from the venas which was cannulizated. The amount of venous blood flow was measured by using an electromagnetic blood flow meter and next measured by using drop-counter to measure the number of drops of blood per 10 seconds.
The increasing effect of cerebral blood flow was calculated by comparing the number of blood drops in 30 seconds at the peak of increasement shown before and after the administration of compound to be tested. Each of the compounds to be tested was dissolved in dimethylformamide and diluted with physiological saline solution and administered through a cannule being inserted into the profunda femoris vein.

[3] = tested on: Deoxycorticosteroneacetate (DOCA)/saline hypertension rats (DHR); test: Hypo-tensive effect, Deoxycorticosteroneacetate (DOCA)/saline hypertension rats (DHR), tail-cuff method; type: in vivo, rat; conditions: 30 mg/kg oral, mean ± standard deviation
Description: Hypo-tensive effect of the compounds was measured by determining the maximum blood pressure of the test animals according to a procedure of Tail-cuff method.
The following types of test animals were used:
(2) Deoxycorticosteroneacetate (DOCA)/saline hypertension rats (DHR)
Wistar strain male rats having 150-170 g of body weight were anesthetized with ether and the left-side kidney was enucleated. One(1) week after the operation, 10 mg/kg of DOCA was injected subcutaneously once a week and 1% NaCl aqueous solution was given as drinking water. Five(5) weeks after the operation, rats having the maximum blood pressure over 150 mmHg were selected and used as test animals after having been denied food overnight.
Each of compounds to be tested was administered orally and the blood pressure of the rats was measured before the administration and 1, 2, 4, 6 and 8 hours after the administration. The blood pressure was measured by using Recorder (Rectihoriz type 8S, San-ei Instrument) and Electrosthygmomanometer PE-300 (Macro Bio-systems, Houston, Tex.).

Row | Structure (SMILES) | inhibition at 100 µM [1] [%] | inhibition at 10 µM [1] [%] | inhibition at 1 µM [1] [%] | change in vivo at 0.3 mg/kg [2] [%] | Maximum blood pressure, difference after the administration ([3]; 1 hour) [mmHg] | Maximum blood pressure, difference after the administration ([3]; 2 hours) [mmHg] | Maximum blood pressure, difference after the administration ([3]; 4 hours) [mmHg] | Maximum blood pressure, difference after the administration ([3]; 6 hours) [mmHg] | Maximum blood pressure, difference after the administration ([3]; 8 hours) [mmHg] | change in vivo at 0.03 mg/kg ([2]; dosage 30 μg/kg) [%]
1 | O=c1ccc2cc(OCCCc3nnnn3C3CCCCCCC3)ccc2[nH]1 [Compound 6, 6-[3-(1-Cyclooctyltetrazol-5-yl)propoxy]carbostyril] | 100 | 100 | 27.4 | 75.3 | -9.2 ± 4.8 | -12.0 ± 5.6 | -18.5 ± 6.1 | -30.3 ± 10.8 | -26.8 ± 10.6 | 
2 | O=c1ccc2cc(OCCCCc3nnnn3C3CCCCC3)ccc2[nH]1 [Compound 7, 6-[4-(1-Cyclohexyltetrazol-5-yl)butoxy]carbostyril] | 100 | 100 | 26.8 | 68.4 | -8.4 ± 10.3 | -11.5 ± 8.5 | -14.8 ± 7.7 | -20.2 ± 14.0 | -21.3 ± 19.1 | 
3 | O=c1ccc2cc(OCCCc3nnnn3C3CCCCC3)ccc2[nH]1 [Compound 1, 6-[3-(1-Cyclohexyltetrazol-5-yl)propoxy]carbostyril] | 100 | 100 | 25.9 | 72.2 | -10.1 ± 3.7 | -10.0 ± 3.7 | -17.4 ± 5.2 | -25.4 ± 10.5 | -34.6 ± 13.5 | 36.9
4 | O=c1ccc2cc(OCCCc3nnnn3CC3CCCCC3)ccc2[nH]1 [Compound 5, 6-[3-(1-Cyclohexylmethyltetrazol-5-yl)propoxy]carbostyril] | 100 | 100 | 24.7 | 71 | -10.7 ± 10.6 | -15.2 ± 11.2 | -12.5 ± 15.3 | -18.1 ± 9.6 |  | 
